These are literature values, as cited in US7390809B2, “Beta-amino heterocyclic dipeptidyl peptidase inhibitors for diabetes” (Merck & Co., Inc., priority 2002, dated 2008).

Series [1] deals with T1, DP-IV (Homo sapiens, UniProt P27487).
T1 construct: GRF is rapidly degraded in plasma to GRF[3-44]

Series [2] has as its system cardiac allograft. Conditions: rats; survival doubled from day 7.
Series [3] has as its system hematopoiesis. As to conditions: mouse, cyclophosphamide-induced neutropenia.

T1 sequence (P27487 whole entry): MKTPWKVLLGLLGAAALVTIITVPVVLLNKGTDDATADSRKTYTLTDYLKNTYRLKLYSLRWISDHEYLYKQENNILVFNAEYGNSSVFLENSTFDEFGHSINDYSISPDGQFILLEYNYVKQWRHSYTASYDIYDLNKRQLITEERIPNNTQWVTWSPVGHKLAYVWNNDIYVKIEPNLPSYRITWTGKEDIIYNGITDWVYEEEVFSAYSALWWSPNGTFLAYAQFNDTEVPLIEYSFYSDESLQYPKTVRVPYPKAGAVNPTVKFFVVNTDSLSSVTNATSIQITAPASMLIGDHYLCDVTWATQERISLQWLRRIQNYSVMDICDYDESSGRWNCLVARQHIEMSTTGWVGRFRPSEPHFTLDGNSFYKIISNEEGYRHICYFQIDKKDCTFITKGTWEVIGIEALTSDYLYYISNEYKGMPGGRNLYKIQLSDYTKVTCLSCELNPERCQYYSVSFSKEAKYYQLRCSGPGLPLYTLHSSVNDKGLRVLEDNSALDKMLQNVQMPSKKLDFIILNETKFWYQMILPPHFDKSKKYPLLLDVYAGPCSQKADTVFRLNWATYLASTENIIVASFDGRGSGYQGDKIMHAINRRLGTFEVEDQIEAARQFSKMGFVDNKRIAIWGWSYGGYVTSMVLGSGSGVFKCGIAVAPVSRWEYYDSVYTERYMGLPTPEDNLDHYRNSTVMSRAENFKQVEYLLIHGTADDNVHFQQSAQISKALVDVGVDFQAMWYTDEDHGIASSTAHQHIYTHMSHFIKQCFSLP

With diprotin A, the “degradation of GRF in plasma to GRF[3-44]” value in series [1] was “prevented”.

On to `CC(C)N1CCC(c2ccccc2)(c2ccccc2)CC1` [Prodipine, Pro-Pro-diphenyl-phosphonate], for which the cardiac allograft survival in series [2] was 14 day.

Regarding `CC(C)[C@H](N)C(=O)N1CCC[C@H]1B(O)O` [Val-Boro-Pro], in series [3], the effect on hematopoiesis entry is given as “stimulated hematopoiesis”.
